Values quoted from earlier work, collected in patent US6342520B1, “Locally injectable chemotherapeutics” (priority 2000, dated 2002).

Conditions: Phase II clinical trials, administration by general circulation

CC(=O)OC[C@]12CCC(C)=C[C@H]1O[C@@H]1[C@H](O)[C@@H](OC(C)=O)[C@@]2(C)[C@]12CO2 [Anguidine]
hematologic toxicity: considerable hematologic toxicity | overall tumor response rate: low
